Data published in PubChem BioAssay AID2327 (Broad Institute, 2010).
Inconclusive results are not listed. Activity calls are given as the source filed them.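 How the source made its calls: active means compound whose fitted EC50 for lowering fibroblast viability lies at most a set limit above the top dose tested; inconclusive means flat fit with 30 to 70% activity, or poor fit; inactive means the rest.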

Test system: NIH-3T3 fibroblast viability, Alamar Blue, 48 h, fluconazole
Assay: NIH-3T3 fibroblast cytotoxicity, dose response, cytotoxicity control, cell-based, fluorescence, Alamar Blue, secondary assay (AID 2327)

Row | Compound | EC50
1 | CC1CCC(C(C)C)C(OC(=O)Cn2c(-c3ccc(Br)cc3)[n+](C)c3ccccc32)C1 (configuration not stated) | > 16 µM (inactive)
2 | C[C@]12CC[C@H](O)C[C@@H]1CC[C@@H]1[C@@H]2CC[C@]2(C)C(=O)CC[C@@H]12 | > 16 µM (inactive)
3 | NC(=NCCCCCCN=C(N)/N=C(\N)Nc1ccc(Cl)cc1)/N=C(\N)Nc1ccc(Cl)cc1 | > 16 µM (inactive)
4 | O=C1/C(=C/c2cccnc2)SC(=S)N1C1CCS(=O)(=O)C1 (configuration not stated) | > 15 µM (inactive)
5 | CC1CCC(C(C)C)C(OC(=O)C[n+]2cc(-c3ccc(Cl)cc3)n3c2CCCCC3)C1 (configuration not stated) | > 16 µM (inactive)
6 | C[C@]12CCC3[C@@H](CC[C@H]4C[C@@H](O)CC[C@]34C)C1CCC2=O (some centres not stated) | > 15 µM (inactive)
7 | O=C1/C(=C\c2cccnc2)SC(=S)N1C1CCS(=O)(=O)C1 (configuration not stated) | > 16 µM (inactive)
